Data from US9060966B2, “Use of 2,5-dihydroxybenzene derivatives for the treatment of arthritis and pain” (priority 2006, dated 2015).

Tests used:
[1] = biological target: T1, fibroblast growth factor-1 (FGF-1) (Homo sapiens, UniProt P05230); assay: Co-crystallisation with FGF-1 (crystal diffraction of complexes); type: binding; settings: for acetoxyl groups of the compound when bound to the protein: electron density contoured at 1σ; for binding site on FGF-1 in the crystal complex: reference: site of 2,5-dihydroxybenzene sulfonic acid, lysine 132
Text: (§1) FIG. 24. 2-acetoxy-5-hydroxybenzenesulfonic acid co-crystallized with fibroblast growth factor-1. […] The compound occupies a place that is very close to that described occupied by 2,5-dihydroxybenzenesulfonic acid, the aromatic ring of which forms a cation-σ bond with the N^ε group of lysine 132, which is marked in panel A as reference. […] In panels A and B, the protein surface is colored according to its electrostatic potential (light grey: negative charge; dark grey: positive charge; white: lack of charge).
as §1, with “25. 5-acetoxy-2-hydroxybenzenesulfonic” for “24. 2-acetoxy-5-hydroxybenzenesulfonic”, “cation-π” for “cation-σ”
as §1, with “26. 2,5-diacetoxybenzenesulfonic” for “24. 2-acetoxy-5-hydroxybenzenesulfonic”, “cation-π” for “cation-σ”
Based on the crystal diffraction of the FGF-1:2-acetoxy-5-hydroxybenzene sulfonic acid, FGF-1:5-acetoxy-2-hydroxybenzene sulfonic acid and FGF-1:2,5-diacetoxybenzene sulfonic acid complexes, the structures of the complexes were calculated and represented. FIGS. 24, 25 and 26, which show the surface of the dyed protein according to its electrostatic potential (light grey: negative charge; dark grey: positive charge; white: lack of charge), show the manner in which 2-acetoxy-5-hydroxybenzene sulfonic acid, 5-acetoxy-2-hydroxybenzene sulfonic acid and 2,5-diacetoxybenzene sulfonic acid interact, respectively, with FGF-1.

[2] = system: human retinal endothelial cells (HREC); assay: Proliferation of human retinal endothelial cells (HREC, crystal violet); type: cell-based; settings: 72 h
Procedure: (§2) 2A-5HBS was administered or not administered (control) after seeding the HREC in 24-well plates (7.5×10^3 per well) until they were fixed after 72 hours. The data are expressed as the mean±SEM of the percentage of the absorbance at 595 nm obtained in the control cultures, which is proportional to the number of cells stained with crystal violet. The data were obtained from 6 cultures for each treatment in two separate experiments. The white bar represents the value of the control cells, whereas the gray bars show the value in the presence of 2A-5HBS (500 and 1000 μM). * indicates p<0.05, *** p<0.001 with respect to the control by means of a single-factor analysis of variance (ANOVA) followed by a Student-Newman-Keuls post-analysis.
as §2, with “5A-2HBS” for “2A-5HBS”, “striped” for “gray”, “***” for “*”, “indicates” for “indicates p<0.05, ***”
2,5-DHCME was administered or not administered (control) after seeding the HREC in 24-well plates (7.5×10^3 per well) until they were fixed after 72 hours. The data are expressed as the mean±SEM of the percentage of the absorbance at 595 nm obtained in the control cultures, which is proportional to the number of cells stained with crystal violet. The data were obtained from 6 cultures for each treatment in two separate experiments.
Primary cultures of human retinal endothelial cells (HREC) were used. Cells were obtained from Cell Systems (Virginia, USA) and subcultured with CSC complete medium (Cell Systems). Cells at 2 to 5 passages were seeded in 24-well plates at 7,500 cells/well density and, once attached, the cells were treated o not treated (controls) with 2A-5HBS (500 and 1000 μM) or 5A-2HBS (500 and 1000 μM) and they were allowed to proliferate for 72 hours, with daily medium changes. After that, the proliferation of HREC was evaluated by staining the fixed cells with crystal violet. The number of cells is proportional to the amount of retained dye, which was spectrophotometrically determined by measuring absorbance at 595 nm after removing the dye from the cells. Data are expressed as the percentage of absorbance at 595 nm obtained in control conditions. Data were obtained from two different experiments performed in triplicate.
Primary cultures of human retinal endothelial cells (HREC) were used. Cells were obtained from Cell Systems (Virginia, USA) and subcultured with CSC complete medium (Cell Systems). […] After that, the proliferation of HREC was evaluated by staining the fixed cells with crystal violet. The number of cells is proportional to the amount of retained dye, which was spectrophotometrically determined by measuring absorbance at 595 nm after removing the dye from the cells. Data are expressed as the percentage of absorbance at 595 nm obtained in control conditions. […]

[3] = system: rat C6 glioma cells; assay: Proliferation of rat glioma C6 cells (crystal violet); type: cell-based; settings: 500 μM, 48 h
Procedure: FIG. 23. […] 5A-2HBS and 2A-5HBS were administered or not (control) after seeding C6 cells in 24 well plates (10^4 per well) until they were fixed 48 hours later. Data are expressed as the mean±SEM of the percentage of absorbance at 595 nm obtained in control cultures, which is proportional to the number of cells stained with crystal violet. Data were obtained from 3 cultures for each treatment and 6 control cultures.
The cell line used was the C6 cell line and the experiment was carried out as described in examples 2 and 3. Once adhered, the cells were treated or not (controls) with (5A-2HBS) (500 μM) or (2A-5HBS) (500 μM) and they were allowed to proliferate for 48 h. After this time the glioma cell proliferation was evaluated by means of staining the fixed cells with crystal violet. The number of cells is proportional to the amount of retained dye, which was determined spectrophotometrically by measuring the absorbance at 595 nm once the dye was extracted from the cells.

[4] = biological target: T1, fibroblast growth factor-1 (FGF-1); assay: Inhibition of fibroblast mitogenesis induced by FGF-1 in Balb/c 3T3 fibroblasts; type: cell-based; design: host or cells: added to Balb/c 3T3 fibroblasts (mouse); settings: quiescent Balb/c 3T3 cultures; potassium salts, except 2-acetoxy-5-hydroxybenzene sulfonate as calcium salt
Procedure: The evaluated compounds were used in the form of potassium salt, except in the first case in which calcium salt was used. The experiments were carried out as described in Fernandez-Tornero C et al. J Biol Chem, 2003.

[5] = system: Leishmania major; assay: Experimental infection with Leishmania major in a mouse model (paw thickness); type: in vivo, mice; settings: 200 mg/kg/day i.p. for 14 days from third week after infection, effect from the eighth week
Text: (§3) The vehicle group consisted of infected animals that received daily injections of saline (0.9% NaCl) during the same period as DHBS. Results are expressed as the mean±the standard deviation of the increases in size of the inoculated paw (right) compared to the non-inoculated paw (left) in mm obtained with a Vernier caliper each week from 0 to 10. ** indicates p<0.01 vs. the vehicle-treated group by a Student t-test. 6 animals were used for each group.
as §3, with “from” for “during”, “moment of the infection, while the control group consisted of non-infected animals.” for “same period as DHBS.”, “9. *” for “10. **”, “p<0.05” for “p<0.01”, “vehicle” for “vehicle-treated”, “7” for “6”
as §3, with “from” for “during”, “third week after the infection.” for “same period as DHBS.”, “9. *” for “10. **”, “p<0.05” for “p<0.01”, “vehicle” for “vehicle-treated”, “7” for “6”
This model is based in the massive inoculation of Leishmania promatigotes in the mouse paw pad. Under these conditions, the parasite induces a progressive inflammation correlated with the multiplication of parasites at the site of inoculation. BALB/c strain female mice that developed severe and uncontrolled injuries were used (Foote S J, Handman E. Brief Funct Genomic Proteomic, 2005). This model has been used in pharmacology to monitor the therapeutic capacity of new leishmanicide compounds and the preventive capacity of potential vaccines against leishmaniasis ((Nelson K G et al. Antimicrob Agents Chemother. 2006).
The animals were inoculated with 5×10^6 of L. major promastigotes (strain Hervás) in 50 μL of PBS into the plantar pad of the right back paw. As negative control of the infection, a group of mice inoculated with 50 μL of PBS was used. The sizes of the lesions were measured every 7 days until the animals were sacrificed (week 9) using a Vernier caliper. The thickness of the right back paw (infected) and the left back paw (uninfected) of all the animals was measured at the base of the fifth toe. The progression of the inflammation is represented as the difference in thickness between the infected and the non-infected paws. […]

[6] = system: corneal neovascularization; assay: Topical treatment of human corneal neovascularization; type: in vivo; settings: 5% solution of potassium salt, 4 drops a day topical, 19 days, one patient
Text: Photographs showing the presence of corneal neovascularization in a patient before being treated (A) and after 19 days of topical application of a solution containing 5% of potassium 2,5-dihydroxybenzoate (B). The treatment consisted of daily topical application of 4 drops of such solution.
4 drops a day were topically applied in a patient that presented a corneal neovascularization process refractory to any type of previous treatment.

T1 sequence (P05230 whole entry, species assumed): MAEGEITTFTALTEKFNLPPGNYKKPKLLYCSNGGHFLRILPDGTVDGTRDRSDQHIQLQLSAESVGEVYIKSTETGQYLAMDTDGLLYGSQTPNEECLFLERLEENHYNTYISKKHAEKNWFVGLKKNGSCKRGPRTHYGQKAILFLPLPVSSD

Compound | acetoxyl groups of the compound when bound to the protein [1] | binding site on FGF-1 in the crystal complex [1] | rat glioma cell proliferation [3] | FGF-1 induced mitogenesis [4] | further results
CC(=O)Oc1ccc(O)cc1S(=O)(=O)[O-].[K+] [2A-5HBS, potassium 2-acetoxy-5-hydroxybenzene sulfonate] | conserve the acetoxyl groups | a site that is very close to the one that has been described occupied by 2,5-dihydroxybenzene sulfonic acid | inhibition |  | HREC proliferation ([2]; 500 μM): significant inhibition; HREC proliferation ([2]; 1000 μM): significant inhibition
calcium 2-acetoxy-5-hydroxybenzenesulfonate |  |  |  | Inhibition | 
O=S(=O)([O-])c1cc(O)ccc1O.[K+] [potassium 2,5-dihydroxybenzenesulfonate] |  |  |  | Inhibition | increase of paw thickness / size of the lesion (infected vs non-infected paw) [5]: Reduction in the size of the lesion; increase of paw thickness / size of the lesion (infected vs non-infected paw) ([5]; listed as potassium 2,5-dihydroxybenzene sulfonate): significant reduction in the increase of paw thickness
CC(=O)Oc1ccc(O)c(S(=O)(=O)[O-])c1.[K+] [5A-2HBS, potassium 5-acetoxy-2-hydroxybenzenesulfonate] | conserve the acetoxyl groups | a site that is very close to the one that has been described occupied by 2,5-dihydroxybenzene sulfonic acid | inhibition | Inhibition | 
COC(=O)C=Cc1cc(O)ccc1O [2,5-DHCME, 2,5-dihydroxycinnamic acid methyl ester] |  |  |  |  | HREC proliferation ([2]; 50 μM): significant inhibition; HREC proliferation ([2]; 100 μM): significant inhibition
O=C([O-])c1cc(O)ccc1O.[K+] [2,5-dihydroxybenzoate, potassium 2,5-dihydroxybenzoate] |  |  |  |  | degree of corneal vascularization [6]: remarkable reduction in the degree of corneal vascularization; degree of corneal vascularization ([6]; listed as 2,5-dihydroxybenzoic acid): noticeable reduction in the degree of corneal vascularization
